One experiment has as its target T1, Polγ (Homo sapiens, UniProt P54098).
T1 construct: gift: Dr. Copeland (NIEHS)
T1 sequence (P54098 1-1239): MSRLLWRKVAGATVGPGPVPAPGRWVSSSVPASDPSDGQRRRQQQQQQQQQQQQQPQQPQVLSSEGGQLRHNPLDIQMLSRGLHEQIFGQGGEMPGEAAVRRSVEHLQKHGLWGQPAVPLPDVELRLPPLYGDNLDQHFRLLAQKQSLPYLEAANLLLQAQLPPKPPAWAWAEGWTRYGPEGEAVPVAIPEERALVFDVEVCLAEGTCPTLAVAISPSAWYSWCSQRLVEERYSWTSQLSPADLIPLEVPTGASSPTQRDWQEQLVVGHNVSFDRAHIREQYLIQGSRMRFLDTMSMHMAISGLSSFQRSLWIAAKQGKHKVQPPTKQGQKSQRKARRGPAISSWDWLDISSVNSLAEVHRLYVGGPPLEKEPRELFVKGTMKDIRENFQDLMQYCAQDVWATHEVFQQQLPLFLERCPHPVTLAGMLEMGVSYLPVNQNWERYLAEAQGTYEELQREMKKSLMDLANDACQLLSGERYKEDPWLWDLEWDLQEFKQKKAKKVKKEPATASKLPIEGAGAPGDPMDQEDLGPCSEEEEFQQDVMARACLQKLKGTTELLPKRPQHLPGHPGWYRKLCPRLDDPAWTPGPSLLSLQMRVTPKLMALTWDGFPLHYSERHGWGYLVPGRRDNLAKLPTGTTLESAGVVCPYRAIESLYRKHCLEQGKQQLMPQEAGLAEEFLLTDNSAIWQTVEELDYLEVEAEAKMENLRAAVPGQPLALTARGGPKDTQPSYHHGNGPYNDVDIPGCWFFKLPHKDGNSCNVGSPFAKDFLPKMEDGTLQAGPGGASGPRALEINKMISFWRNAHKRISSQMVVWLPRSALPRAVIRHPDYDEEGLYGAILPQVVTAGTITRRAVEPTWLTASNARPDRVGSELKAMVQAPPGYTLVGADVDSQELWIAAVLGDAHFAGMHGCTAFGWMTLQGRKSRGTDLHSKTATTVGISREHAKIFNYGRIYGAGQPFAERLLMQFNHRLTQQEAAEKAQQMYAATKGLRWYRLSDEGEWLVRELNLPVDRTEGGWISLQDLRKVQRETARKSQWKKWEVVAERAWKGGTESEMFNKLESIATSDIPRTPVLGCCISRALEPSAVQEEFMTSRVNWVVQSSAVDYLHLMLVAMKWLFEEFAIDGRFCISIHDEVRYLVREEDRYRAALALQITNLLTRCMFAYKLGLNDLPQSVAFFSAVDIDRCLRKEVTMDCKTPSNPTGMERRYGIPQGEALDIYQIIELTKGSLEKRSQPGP
The experiment in a line: Primer extension by recombinant Pols (selectivity). The experiment is classed as biochemical.

A short description of experiment [1]: Colony survival, ola with or without RTX-161 (source data sheet Fig. 2 b; cell line not given). Type of experiment: cell-based.

The structures appear in SMILES notation. Where “and” joins values, the source holds several entries; their conditions need not be identical. Identical values can stand only once.

For the molecule `CN(C(=O)Oc1c(N2CCN(CCO)C2=O)cc(C(F)(F)F)cc1C(F)(F)F)c1ccc(F)cc1` [RTx-161], at Polγ (Pol Gamma), the “% Full Extension” value is given as 81.33%. For the same molecule, at Polγ (Pol Gamma), the “% Inhibition Compared to Control” value is 1.34%. In addition, the “% Relative Maximum Extension” value at Polγ (Pol Gamma) was 98.66%. The “inhibition of primer extension” value at Polγ (selectivity panel) is on record as “no inhibition”. Moreover, the percent suvival in experiment [1] (RTX-161 2.5 micro M + ola 11.8 nano M) was 48.7273%; in experiment [1] (RTX-161 2.5 micro M + ola 26.60 nano M), 30.5455%; in experiment [1] (RTX-161 2.5 micro M + ola 60.00 nano M) it was 18.9091%; in experiment [1] (RTX-161 2.5 micro M, ola 0.00 nano M), 75.7576% and 82.5581% and 83.6364%; in experiment [1] (RTX-161 5 micro M + ola 11.8 nano M), 22.5455%; in experiment [1] (RTX-161 5 micro M + ola 26.60 nano M), 14.9091%. Further, the percent suvival is 2.545% in experiment [1] (RTX-161 5 micro M + ola 60.00 nano M); 46.9697% and 43.6047% and 70.9091% in experiment [1] (RTX-161 5 micro M, ola 0.00 nano M); 9.818% in experiment [1] (RTX-161 10 micro M + ola 11.8 nano M); 5.091% in experiment [1] (RTX-161 10 micro M + ola 26.60 nano M); 0.7273% in experiment [1] (RTX-161 10 micro M + ola 60.00 nano M); 24.2424% and 34.8837% and 47.6364% in experiment [1] (RTX-161 10 micro M, ola 0.00 nano M).
